Measured values taken from patent US20030032639A1, “Composition and method for reducing adverse interactions between phenothiazine derivatives and plasma using surfactants and amino acids” (Wyeth, priority 2001, published 2003).

What was measured:
[1] = promethazine hydrochloride preparation mixed with plasma in vitro, relative amount of precipitate formed; type: physicochemical; settings: laboratory studies, ratio not stated
Source text: Without being bound by any particular theory, it is believed that this precipitate formation could be related to the venous thrombosis found at the injection site, as well as the cause of other local adverse reactions involving promethazine injection. […] With a composition according to one or more of the embodiments set forth herein, it is expected that a promethazine solution given by the routes of i.v. and i.m. (intramuscular) injection would have fewer incidences of irritation and other adverse reactions at the site of injection.

[2] = after intramuscular injection; cited from earlier work
[3] = cited from earlier work

precipitate formation when solution is mixed with plasma [1]: precipitates form immediately
Compound: CC(CN1c2ccccc2Sc2ccccc21)N(C)C.Cl (racemic) [promethazine hydrochloride, 10H-Phenothiazine-10-ethanamine, N,N, α-trimethyl-, monohydrochloride, (±)]
plasma creatine kinase levels (indication of muscle irritation) [2]: raise plasma creatine kinase levels
adverse reactions at the local area of injection ([3]; clinical case reports): irritation and other serious adverse reactions at the local area of injection, particularly gangrene at the extremity of the injection site
venous thrombosis at the injection site ([3]; in vivo, iv): some incidents of venous thrombosis at the injection site
